Reference: patent US20190119282A1, “IMIDAZOPYRIDAZINES USEFUL AS INHIBITORS OF THE PAR-2 SIGNALING PATHWAY” (Vertex Pharmaceuticals Incorporated, priority 2013, published 2019)
pIC50: −log10 of the molar value.

Columns and labels:
[1] = test system: UTP-stimulated Ca2+ response in HT-29 cells; assay: Ca FLIPR TETRA assay, ANTAGONIST mode, stimulation with 0.6 μM UTP; assay type: cell-based, human; conditions: Homo sapiens, HT-29 cells, stimulation with 0.6 μM UTP
How it was run: (§1)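 Intracellular calcium is measured by fluorescence in HT-29 cells loaded with calcium 5 reagent. Compounds sit on the cells 30 min at room temperature before challenge with trypsin (3.1 U/mL) or SLIGKV (8 μM) for PAR2, or with thrombin (1 U/mL) or UTP (0.6 μM) as counter-stimuli.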

[2] = target: T1, PAR2 (HT-29 cells, trypsin activation) (Homo sapiens, UniProt P55085); assay: Ca FLIPR TETRA assay, ANTAGONIST mode, stimulation with 3.1 U/mL trypsin; assay type: cell-based; conditions: HT-29 cells, stimulation with 3.1 U/mL trypsin
T1 construct: host or cells: HT-29 cells
T1 sequence (P55085 26-397): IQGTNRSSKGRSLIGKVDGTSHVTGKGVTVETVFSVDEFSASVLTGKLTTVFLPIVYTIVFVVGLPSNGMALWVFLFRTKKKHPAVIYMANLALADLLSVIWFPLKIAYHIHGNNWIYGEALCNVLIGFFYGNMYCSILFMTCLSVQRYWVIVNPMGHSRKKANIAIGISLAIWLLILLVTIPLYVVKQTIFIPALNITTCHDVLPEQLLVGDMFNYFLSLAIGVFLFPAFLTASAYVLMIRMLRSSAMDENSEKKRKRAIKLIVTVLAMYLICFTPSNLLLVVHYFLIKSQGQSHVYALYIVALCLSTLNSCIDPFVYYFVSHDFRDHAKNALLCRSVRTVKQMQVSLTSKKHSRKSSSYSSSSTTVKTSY
How it was run: as §1

[3] = target: T2, PAR2 (HT-29 cells, SLIGKV activation) (Homo sapiens, UniProt P55085); assay: Ca FLIPR TETRA assay, ANTAGONIST mode, stimulation with 8 μM SLIGKV; assay type: cell-based; conditions: HT-29 cells, stimulation with 8 μM SLIGKV
T2 construct: host or cells: HT-29 cells
T2 sequence (P55085 26-397): T1 sequence (P55085 26-397)
How it was run: as §1

[4] = test system: Thrombin-stimulated Ca2+ response in HT-29 cells; assay: Ca FLIPR TETRA assay, ANTAGONIST mode, stimulation with 1 U/mL Thrombin; assay type: cell-based, human; conditions: Homo sapiens, HT-29 cells, stimulation with 1 U/mL Thrombin
How it was run: as §1

pIC50 ([1]; antagonist mode)	pIC50 ([2]; antagonist mode)	pIC50 ([3]; antagonist mode)	pIC50 ([4]; antagonist mode)	pIC50 [1]	pIC50 [2]	pIC50 [3]	pIC50 [4]	SMILES
< 6.00	8.46	8.40	< 6.00	–	–	–	–	CC(C)(C)c1cc(-c2ccc(F)cc2)nn2cc(C(=O)N3CCN(C4COC4)C(=O)C3(C)C)nc12 [Compound I-210]
< 6.00	8.11	8.30	< 6.00	–	–	–	–	Cc1ccc(-c2cc(C(C)C)c3nc(C(=O)N4CCNC(=O)C4(C)C)cn3n2)cc1 [Compound I-242]
–	–	–	–	4.38	6.66	6.96	5.24	COC(=O)[C@@H]1CCN(C(=O)c2cn3nc(-c4ccc(F)cc4)cc(C(F)(F)F)c3n2)C[C@@H]1C [Compound I-64]
< 6.00	8.60	8.82	< 6.00	–	–	–	–	CC1(C)CN(C(=O)C2CC(O)(C(F)(F)F)C2)CCN1C(=O)c1cn2nc(-c3ccc(F)cc3)cc(C(F)(F)F)c2n1 (stereo not drawn) [Compound I-272]
< 6.00	8.37	8.66	< 6.00	–	–	–	–	Cc1nnc(C(=O)N2CCN(C(=O)c3cn4nc(-c5ccc(F)c(C)c5)cc(C(C)(C)C)c4n3)C(C)(C)C2)o1 [Compound I-385]
< 6.00	6.37	6.82	< 6.00	–	–	–	–	CC(C)c1cc(-c2ccc(F)cc2)nn2cc(C(=O)N3CCN(C(=O)[C@H](O)CC(C)(C)C)C[C@@H]3C)nc12 [Compound I-197]
6.27	8.60	8.82	6.37	–	–	–	–	CC(C)(O)CC(=O)N1CCN(C(=O)c2cn3nc(-c4ccc(F)cc4)cc(C(C)(C)C)c3n2)C(C)(C)C1 [Compound I-289]
< 6.00	7.26	7.04	< 6.00	–	–	–	–	C=C(C)c1cc(-c2ccc(F)cc2)nn2cc(C(=O)N3CCN(C)C(=O)C3(C)C)nc12 [Compound I-212]
–	–	–	–	4.72	6.00	7.80	4.70	CCC(C)(O)CC(=O)N1CCN(C(=O)c2cn3nc(-c4ccc(F)cc4)cc(C(C)C)c3n2)C[C@@H]1C (stereo partly drawn) [Compound I-146]
< 6.00	8.57	8.74	< 6.00	–	–	–	–	CC(C)(C)c1cc(-c2ccc(C(F)(F)F)cc2)nn2cc(C(=O)N3CCN(C(=O)[C@H]4C[C@@](C)(O)C4)CC3(C)C)nc12 [Compound I-463]
< 6.00	9.70	10.00	< 6.00	–	–	–	–	CC(C)(C)c1cc(-c2ccc(Cl)cc2)nn2cc(C(=O)N3CCN(C(=O)[C@H]4CC[C@@H](C(=O)O)CC4)CC3(C)C)nc12 [Compound I-490]
< 6.00	8.80	8.85	< 6.00	–	–	–	–	Cc1ccc(-c2cc(C(C)C)c3nc(C(=O)N4CCN(C(=O)c5ccn[nH]5)CC4(C)C)cn3n2)cc1F [Compound I-374]
6.09	7.89	8.21	< 6.00	–	–	–	–	CC(C)(C)c1cc(-c2ccc(F)cc2F)nn2cc(C(=O)N3CCNC(=O)C3(C)C)nc12 [Compound I-472]
< 6.00	8.70	8.77	< 6.00	–	–	–	–	CC(C)c1cc(-c2ccc(C(F)(F)F)cc2)nn2cc(C(=O)N3CCN(C(=O)c4ccn[nH]4)CC3(C)C)nc12 [Compound I-246]
< 6.00	8.60	8.85	< 6.00	–	–	–	–	Cc1ccc(-c2cc(C(C)(C)C)c3nc(C(=O)N4CCN(C(=O)c5ncccn5)CC4(C)C)cn3n2)cc1 [Compound I-392]
< 6.00	8.55	8.27	< 6.00	–	–	–	–	CC(C)c1cc(-c2ccc(F)c(Cl)c2)nn2cc(C(=O)N3CCNC(=O)C3(C)C)nc12 [Compound I-363]
< 6.00	7.15	7.32	< 6.00	–	–	–	–	CC1(C)CN(C(=O)c2ncc[nH]2)CCN1C(=O)c1cn2nc(-c3ccc(F)cc3)cc(C(F)(F)F)c2n1 [Compound I-270]
< 6.00	7.35	7.49	< 6.00	–	–	–	–	CC(C)(C)c1cc(-c2ccc(F)cc2)nn2cc(C(=O)N3CCN(C(=O)c4nnn[nH]4)CC3(C)C)nc12 [Compound I-296]

pIC50 ([1]; antagonist mode)	pIC50 ([2]; antagonist mode)	pIC50 ([3]; antagonist mode)	pIC50 ([4]; antagonist mode)	pIC50 [1]	pIC50 [2]	pIC50 [3]	pIC50 [4]	SMILES
–	–	–	–	< 6.30	8.05	8.70	4.60	CC(C)CCCC(=O)N1CCN(C(=O)c2cn3nc(-c4ccc(F)cc4)cc(C(C)C)c3n2)C[C@@H]1C [Compound I-139]
< 6.00	< 6.00	6.24	< 6.00	–	–	–	–	CC(C)c1cc(-c2ccc(F)cc2)nn2cc(C(=O)N3CCN(C(=O)C(O)C(C)C)C[C@H]3C)nc12 (stereo partly drawn) [Compound I-195]
< 6.00	9.30	9.52	< 6.00	–	–	–	–	Cc1ccc(-c2cc(C(C)(C)C)c3nc(C(=O)N4CCN(C(=O)[C@H]5C[C@@](C)(O)C5)CC4(C)C)cn3n2)cc1F [Compound I-415]
–	–	–	–	4.68	6.54	7.39	4.66	CCOCCC(=O)N1CCN(C(=O)c2cn3nc(-c4ccc(F)cc4)cc(C(C)C)c3n2)C[C@@H]1C [Compound I-143]
–	–	–	–	4.39	7.21	7.64	4.37	CC1(C)C(=O)NCCN1C(=O)c1cn2nc(-c3ccc(F)cc3)cc(C(F)(F)F)c2n1 [Compound I-35, 4-[6-(4-Fluorophenyl)-8-(trifluoromethyl)imidazo[1,2-b]pyridazine-2-carbonyl]-3,3-dimethyl-piperazin-2-one]
–	–	–	–	4.68	7.23	7.27	4.68	C[C@H](O)C(=O)N1CCN(C(=O)c2cn3nc(-c4ccc(F)cc4)cc(C4(C)CC4)c3n2)C(C)(C)C1 [Compound I-34, (2S)-1-[4-[6-(4-fluorophenyl)-8-(1-methylcyclopropyl)imidazo[1,2-b]pyridazine-2-carbonyl]-3,3-dimethyl-piperazin-1-yl]-2-hydroxy-propan-1-one]
–	–	–	–	5.27	8.40	8.70	5.19	CC(C)CCC(=O)N1CCN(C(=O)c2cn3nc(-c4ccc(F)cc4)cc(C(C)C)c3n2)C[C@@H]1C [Compound I-127]
< 6.00	9.52	9.52	< 6.00	–	–	–	–	CC(C)(C)c1cc(-c2ccc(F)c(Cl)c2)nn2cc(C(=O)N3CCN(C(=O)[C@H]4CC[C@@H](C(=O)O)CC4)CC3(C)C)nc12 [Compound I-487]
–	–	–	–	5.06	9.10	9.40	5.00	CC(C)C[C@@H](O)C(=O)N1CCN(C(=O)c2cn3nc(-c4ccc(F)cc4)cc(C(C)C)c3n2)C[C@@H]1C [Compound I-105]
< 6.00	8.52	8.34	< 6.00	–	–	–	–	Cc1ccc(-c2cc(C(C)(C)C)c3nc(C(=O)N4CCN(c5c[nH]cn5)C(=O)C4(C)C)cn3n2)cc1F [Compound I-360]
< 6.00	8.66	8.77	< 6.00	–	–	–	–	Cc1ncc(C(=O)N2CCN(C(=O)c3cn4nc(-c5ccc(C(F)(F)F)cc5)cc(C(C)(C)C)c4n3)C(C)(C)C2)[nH]1 [Compound I-423]
< 6.00	7.94	7.82	< 6.00	–	–	–	–	CC(C)c1cc(-c2ccc(F)cc2)nn2cc(C(=O)N3CCN(C(=O)C(C)(O)C(F)(F)F)CC3(C)C)nc12 (stereo not drawn) [Compound I-313]
< 6.00	8.06	8.17	< 6.00	–	–	–	–	CC(C)(C)c1cc(-c2ccc(F)cc2)nn2cc(C(=O)N3CCOC(=O)C3(C)C)nc12 [Compound I-510]
–	–	–	–	4.77	4.92	5.17	5.04	NC(=O)C1CCCCN1C(=O)c1cn2nc(-c3ccc(F)cc3)cc(C(F)(F)F)c2n1 (stereo not drawn) [Compound I-81]
–	–	–	–	< 4.30	4.92	5.44	< 4.30	CC1CN(C(=O)c2cn3nc(-c4ccc(F)cc4)cc(C(F)(F)F)c3n2)CCCN1C(=O)OC(C)(C)C (stereo not drawn) [Compound I-94]
< 6.00	7.78	7.78	< 6.00	–	–	–	–	C[C@@H]1C[C@H](c2cc(-c3ccc(F)cc3)nn3cc(C(=O)N4CCN(C(=O)OC(C)(C)C)CC4(C)C)nc23)C[C@H](C)O1 [Compound I-209]
6.16	8.25	8.40	6.09	–	–	–	–	CC(C)(C)c1cc(-c2ccc(F)cc2)nn2cc(C(=O)N3CCN(C(=O)C4CC(C(=O)O)C4)CC3(C)C)nc12 (stereo not drawn) [Compound I-492]
< 6.00	6.63	6.77	< 6.00	–	–	–	–	CC(C)(C)c1cc(-c2ccc(N=[N+]=[N-])cc2)nn2cc(C(=O)N3CCNC(=O)C3(C)C)nc12 [Compound I-536]
